# Measured values published in a melting point compilation (Tetko et al.; mined from patent text by program, amines drawn as free bases though some values may be those of a salt).
row,Structure (SMILES),melting point [°C]
1,O=C(CCO)Nc1cccc(-c2ccc3c(c2)C(c2ccc(Cl)cc2Cl)CC3)c1 (stereo not drawn),202 to 203
2,COc1ccc(C(c2ccc(OC)cc2)c2cnccc2C(=O)NC23CC4CC(CC2C4)C3)cc1,110 to 112
3,N#Cc1ccc(CN2C(=O)C3CCCC3N(C(=O)CN3C(=O)c4ccccc4C3=O)c3ccccc32)cc1 (stereo not drawn),222 to 224
4,CCC(C)Nc1c([N+](=O)[O-])cc(C)c(Cl)c1[N+](=O)[O-] (stereo not drawn),40 to 46
5,COc1ccc(N2C(=O)[C@H]([C@@H](C)O)[C@H]2S(=O)(=O)c2ccccc2)cc1,191 to 195
6,NC(=O)c1nc(-c2cccc(O)c2)nc2c1[nH]c(=O)n2-c1cccc(F)c1,> 375
7,CSc1nn(C(=O)NC(C)(C)C)c(=O)n1N,134
8,Nc1c(C(=O)O)ccc(F)c1F,207 to 208
9,CC(C)(C)OC(=O)N1CCc2cc3nccnc3cc2CC1,107 to 109
10,Cc1cc(CC(=O)NCc2cccc3c2C(=O)N(C2CCC(=O)NC2=O)C3=O)c(C)o1 (stereo not drawn),193 to 195
11,CS(=O)(=O)OCC(O)(CC(Cl)(Cl)Cl)c1cc(Cl)cc(Cl)c1 (stereo not drawn),99 to 104
12,CC(=O)N(CC(C)C)C1NC(=O)N(c2ccc(C)cc2)C(=O)N1,159 to 160
13,O=C(O)Cc1coc2cc(OCc3cccc(OCc4ccc(C(F)(F)F)cc4)c3)ccc12,155 to 157
14,Cc1nnc2ccc(-c3cccc(C(F)(F)F)c3)nn12,193 to 194
15,COc1cc(Cl)ccc1C(=O)Nc1ccc(-n2nc(C(F)(F)F)cc2C(F)(F)F)cc1,178 to 180
16,CCCCCC1OCc2cc(C(N)=O)ccc2O1 (stereo not drawn),162 to 163
17,Cc1cc(Br)cnc1CCCCNc1ncc(Cc2ccc(CO)nc2)c(=O)[nH]1,61 to 70
18,CCOC(=O)NCC(=O)c1ccc(OCC(=O)NCCN2CCOCC2)cc1,133 to 135
19,Cn1cc(O)c(=O)c2ccccc21,235 to 240
20,Nc1ccc2c(c1)OCC(CN1CC=C(c3c[nH]c4ccccc34)CC1)O2 (stereo not drawn),199 to 200
21,CC(C)(C)NC(=O)c1ccccc1Cc1ccccc1,91 to 92
22,O=CCCOc1ccc(CC2SC(=O)NC2=O)cc1 (stereo not drawn),48 to 51
23,OC(CSC(=S)Nc1ccc(Cl)cn1)c1ccccc1 (stereo not drawn),116
24,Cc1nc(-c2cccc(C(=O)N[C@H]3CC[C@H](CCN4CCN(c5nccc6c5OCC6)CC4)CC3)c2)no1,228

row,Structure (SMILES),melting point [°C]
1,COc1ccc2c(c1)n(C1CCCCC1)c(=O)n2S(=O)(=O)c1ccc([N+](=O)[O-])cc1,160
2,O=C1c2ccccc2C(=O)N1C(=O)c1cc(Oc2ccc(C(F)(F)F)cc2Cl)ccc1[N+](=O)[O-],160
3,CCc1c(Cl)sc2[nH]c(=O)c(=O)[nH]c12,282 to 284
4,NS(=O)(=O)c1ccc(C2=NC3(O)c4ccc(Cl)cc4CC3S2)cc1 (stereo not drawn),160
5,CCCc1nc(C(C)(O)CC)c(C#N)[nH]1 (stereo not drawn),157 to 159
6,CCOC(=O)c1cn(Cc2ccc(OCc3coc(-c4ccccc4)n3)cc2)nc1-c1cccs1,114 to 115
7,CCOC(CNc1nc2ccccc2[nH]1)OCC,117 to 121
8,C(#Cc1ccccn1)CCn1nnc(-c2ccccc2)n1,71 to 73
9,CCCc1nn(C)c2c(=S)[nH]c(-c3ccccc3OC)nc12,160 to 161
10,COc1ccc(-c2nc(C(=O)Nc3c(C)cccc3C)c[nH]2)cc1OC1CCCC1,118 to 122
11,CN(C)S(=O)(=O)c1ccc2ccc3ccccc3c(=O)c2c1,130 to 136
12,COc1ccc2c(c1)C(=O)CC1C2C(OC(C)=O)CC2(C)C(OC(C)=O)CCC12 (stereo not drawn),199 to 200
13,O=C1Nc2cccnc2N(C(=O)NCCN2CCC(CCCN3CCCCC3)CC2)c2cc(Cl)ccc21,176 to 177
14,CCCOc1ccc(Br)cc1-c1nc2cc3nc[nH]c3cc2c(=O)[nH]1,154 to 155
15,CC(C)C(=O)NC1CCc2c(c3cc(C#N)ccc3n2Cc2ncccc2F)C1 (stereo not drawn),213 to 216
16,O=C(Oc1ccc(S(=O)(=O)Nc2ccccc2)cc1)c1ccc(CCBr)cc1,156 to 157
17,COc1ccccc1OCCCc1oc(N2CCOCC2)nc1-c1ccc(Cl)cc1,81 to 82
18,Cc1nc2nc(S(=O)(=O)Cl)nn2cc1Cl,99 to 101
19,CON=C(OC)C(=O)c1ncsc1C,65
20,CCC(=O)N1CCN(C(=O)OC2C3=C(SCC(OC)CS3)C(=O)N2c2ccc(Cl)cn2)CC1 (stereo not drawn),160
21,CC(=O)Nc1nc2c(Oc3cc(-c4ccc(C(F)(F)F)cc4)ncn3)cccc2s1,219 to 220
22,CCCn1c(=O)cc(NNC(=S)NC(C)=O)n(Cc2ccccc2)c1=O,184 to 185
23,C[C@@H]1O[C@](C#CC2CC2)(C(F)(F)F)c2cc(F)ccc2NC1=O (relative stereo),184 to 185
24,OCc1ccc(OCc2cccc(Cl)c2)cn1,78 to 80

row,Structure (SMILES),melting point [°C]
1,CCOC(=O)c1cc(-c2csc(N(C)S(=O)(=O)c3ccccc3)n2)c(=O)[nH]c1C,231 to 234
2,Oc1ccc(Nc2ccncc2)cc1,246 to 248
3,CN(C)CCc1ccc(O)c2[nH]ncc12,223 to 227
4,CCS(=O)(=O)c1cc(C(=O)NCC(Cl)CCCCl)c(OC)cc1N (stereo not drawn),109
5,CCOC(=O)/C=C/[C@H]1CC[C@H](c2ccc(C#N)cc2)CC1,125
6,N#Cc1cc(F)c(-c2ncnc(C(F)F)c2Cl)cc1[N+](=O)[O-],100 to 102
7,Cc1cc(Br)cc(Br)c1NC(=N)Nc1c(C)cc([N+](=O)[O-])cc1Br,193 to 195
8,OC(c1ccc(Br)cc1)(c1ccc(Br)cc1)c1cncnc1,89 to 90
9,C[C@@H]1C(=O)C[C@H]2C[C@@H]1OO[C@@]2(C)/C=C\c1cccc(C(F)(F)F)c1,101
10,O=c1cc(O)c2cccnc2n1-c1ccccc1,311 to 313
11,CCN(CC)CC#CC(=O)c1ccc(C)cc1,115 to 117
12,CS(=O)c1cc(=O)c2occc2s1 (stereo not drawn),230 to 232
13,CN1CCC(c2c(O)cc(O)c3c(=O)cc(-c4ccccc4Cl)oc23)C1CO (stereo not drawn),228 to 230
14,CC1C(=O)N(CC(N)=O)c2cc(Br)ccc21 (stereo not drawn),102 to 104
15,Nc1ccc2c(c1)CCN(Cc1ncn[nH]1)C2,191 to 193
16,CC(=O)NC1COc2c(C)ccc(N)c2C1=O (stereo not drawn),178 to 180
17,CCCCOC(=O)c1ccc(-c2cc(-c3ccc4c(c3)C(C)(C)CCC4(C)C)nc(O)n2)cc1,267 to 277
18,O=c1ccn(-c2cccc(C(F)(F)F)c2)nc1-c1ccnn1Cc1ccccc1,156 to 157
19,O=C(O)c1cc(-c2cccc(C(F)(F)F)c2)nc(C(F)(F)F)c1,185 to 186
20,COc1ccc(CC(C)NCC(O)c2cccc(Cl)c2F)cc1 (stereo not drawn),95 to 101
21,COC(=O)CC1=C(C)/C(=C/c2ccc(SC)cc2)c2ccc(F)cc21,73 to 75
22,O=C(O)c1cccc2nc(OCC(F)(F)F)n(Cc3ccc(-c4ccccc4-c4nnn[nH]4)cc3)c12,204 to 206
23,CC(C)(C)OC(=O)CN1C(=O)[C@@H](N2C(=O)c3ccccc3C2=O)CSc2ccccc21,181 to 184

# Results, then the molecule that gave them:
row,melting point [°C],Structure (SMILES)
1,179 to 180,COc1ccc(F)cc1C(=O)NC1COc2cc(OC)c(S(=O)(=O)NC(=S)NC(C)C)cc2C1 (stereo not drawn)
2,193 to 195,CCNC(=S)N1CCN(c2ccc3ccccc3n2)CC1
3,193,N=c1nc(Cl)cc(N)n1O
4,103 to 104,CCCCn1c(=O)c2cn(S(C)(=O)=O)nc2n(CCCC)c1=O
5,254 to 256,O=C(O)c1csc(Nc2ccc(Cl)c(C(F)(F)F)c2)n1
6,61 to 62,CCOC(=O)c1cnc(-c2cccs2)s1
7,116,O=c1nc(-c2ccnc(OCc3ccccc3)c2)sc2ccccc12
8,> 300,O=c1[nH]c2cc(Cl)cc(Cl)c2c(O)c1Sc1ccc(O)cc1
9,158 to 160,COC(=O)c1cccc2cc(Cc3cc(NC(C)=O)ncn3)ccc12
10,164,Nn1c(=O)c(-c2cccs2)nc2ccccc21
11,188 to 189,Cn1cc(OS(C)(=O)=O)c(=O)c2cc(F)ccc21
12,145 to 148,CCOC(=O)CNC(=O)c1ccc(-c2ccc([N+](=O)[O-])cc2)cc1
13,172 to 174,CC(C)c1nc(COC(=O)N[C@H](C(=O)N[C@@H](Cc2ccccc2)[C@@H](O)C[C@H](Cc2ccccc2)NC(=O)OCc2cncs2)C(C)C)cs1
14,36 to 38,Clc1ccc([C@H]2CC[C@H](CBr)CC2)cc1
15,156,CN(N)c1nc(-c2ccccc2)c2cc(Cl)ccc2n1
16,> 280,CN1C(=O)Nc2c(Cl)cc(Cl)cc2C12NC(=O)NC2=O (stereo not drawn)

row,melting point [°C],Structure (SMILES)
1,28 to 30,C=C(CCCO)c1ccc(C(=O)OC)cc1
2,100 to 110,Cc1ccc(S(=O)(=O)NN=CC(=O)Cl)cc1
3,195 to 196,CCn1c2ccccc2c2ccncc21
4,120,CN(C)C(=O)c1ccc(S(=O)(=O)c2ccc(NC(=O)[C@@](C)(O)C(F)(F)F)c(Cl)c2)cc1
5,79 to 80,C=CCc1cc(C(=O)OC(C)C)ccc1O
6,190 to 191,O=c1oc2c(O)cccc2c(OCCN2CCOCC2)c1-c1ccccc1
7,58 to 59,FC(F)Oc1cccc2cnsc12
8,84 to 85,COC1=CCc2cccc(N)c2C1
9,324,CN(C)c1ccc(C(=O)NN=C2C(=O)Nc3ccc(I)cc32)cc1
10,154 to 156,Cc1ccc(NC(=O)c2cc(Cl)ccc2NCC2CCN(C3CCS(=O)(=O)CC3)CC2)nc1
11,72 to 76.5,O=C1C(=O)N(CCCCl)c2ccccc21
12,116,CCOC(=O)CC(=O)C=Cc1ccc([N+](=O)[O-])cc1
13,214,Cc1ccc(N2C(=O)c3ccccc3C2=O)nn1
14,198,O=C1c2cc3ccccc3c(-c3ccccc3)c2C(=O)N1C1CC1
15,228 to 230,O=c1c2cc(F)c(N3CCCC3)cc2n(CCF)c(=O)n1O
16,122 to 125,C[C@@H]1N(C(=O)OC(C)(C)C)C(=O)C[C@]1(C)O
